Values of other authors as cited in patent US20150269865A1, “SYSTEMS AND METHODS FOR PERSONALIZED NUTRIMERS” (priority 2014, published 2015).
Blank lines part the entries; values can stand above or below the compound they belong to.

Experiments:
MTHFR = MTHFR (Homo sapiens, UniProt P42898); details: cofactor of MTHFR or needs to be metabolized into Methyl folate
[1] = PMID23482308
[2] = PMID23482308; remark: listed apart in the source
[3] = human, in vivo
[4] = in vivo
[5] = human subject treated even for a few months; PMID 23751310
[6] = PMID 21735411; compared with Ergocalciferol (vitamin D2)
copper absorption = details: PMID 1726403
[7] = orally administered, human absorption kinetic studies, PMID 3257913
[8] = PMID 9630738
[9] = in vivo; remark: listed apart in the source
[10] = PMID 9630738; compared with folic acid

Chain of MTHFR (P42898 whole entry): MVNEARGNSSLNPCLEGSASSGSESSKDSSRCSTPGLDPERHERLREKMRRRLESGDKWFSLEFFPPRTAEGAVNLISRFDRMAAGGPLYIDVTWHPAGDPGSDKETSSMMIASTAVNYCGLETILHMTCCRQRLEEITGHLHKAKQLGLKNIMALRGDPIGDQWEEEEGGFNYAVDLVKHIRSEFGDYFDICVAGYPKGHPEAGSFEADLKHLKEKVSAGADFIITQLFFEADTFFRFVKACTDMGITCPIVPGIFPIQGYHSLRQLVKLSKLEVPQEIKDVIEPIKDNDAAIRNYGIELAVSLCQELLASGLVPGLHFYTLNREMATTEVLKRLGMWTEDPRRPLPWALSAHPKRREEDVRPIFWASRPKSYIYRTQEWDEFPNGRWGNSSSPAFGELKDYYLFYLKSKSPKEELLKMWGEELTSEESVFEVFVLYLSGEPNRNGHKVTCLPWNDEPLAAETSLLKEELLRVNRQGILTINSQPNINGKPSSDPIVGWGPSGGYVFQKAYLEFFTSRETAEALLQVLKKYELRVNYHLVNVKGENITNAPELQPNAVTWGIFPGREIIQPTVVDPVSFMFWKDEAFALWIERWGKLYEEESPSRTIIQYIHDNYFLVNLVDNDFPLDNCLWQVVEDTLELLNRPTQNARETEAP

Cofactor (MTHFR): Not a cofactor. | Stability upon exposure to heat compared with natural forms of folate in the diet [2]: FA is more stable
Compound: Nc1nc2ncc(CNc3ccc(C(=O)N[C@@H](CCC(=O)O)C(=O)O)cc3)nc2c(=O)[nH]1 [Folic acid (FA), Folic acid]
Side effects: masking of vitamin B12 deficiency [1]: “does not mask

B12 intake above which absorbance declines with increased supplementation [3]: about 10 mcg
Compound: cobalamin [B12]

effect on absorption of desipramine (Norpramin) [4]: interferes with the absorption
Compound: Vitamin E

effect on vitamin B12 and folate levels [5]: decrease of vitamin B12 and folate
Compound: CN(C)C(=N)N=C(N)N [metformin]

Compound: C=C1CC[C@H](O)C/C1=C/C=C1\CCC[C@]2(C)[C@@H]([C@H](C)CCCC(C)C)CC[C@@H]12 [Cholecalciferol]
effect on mortality [6]: decrease mortality

Compound: [Zn] [zinc]
effect on copper absorption (copper absorption): inhibits copper absorption

Compound: Nc1nc(=O)c2c([nH]1)NCC(CNc1ccc(C(=O)N[C@@H](CCC(=O)O)C(=O)O)cc1)N2C=O (mixture of isomers) [Folinic acid]
bioavailability [7]: 92% | Cofactor (MTHFR): Not a cofactor. | Stability: half-life in the body compared with folic acid [8]: longer half-life in | transport through the blood brain barrier into the central nervous system [9]: readily transported | Therapeutic effects [10]: more metabolically
